Read-outs that look alike come from different tables or passages of the source.
Columns and labels:
[1] = in vivo
[2] = Study AG881-C-004 (INDIGO): hepatic enzyme elevation adverse events and dose modifications; format: in vivo, human; conditions: for TEAEs leading to death, number of subjects / Treatment-related TEAEs leading to death, number of subjects: 40 mg QD, hepatic enzymes elevation SMQ
Excerpt: For Study AG881-C-004, the inclusion criteria specified that subjects with adequate hepatic (serum total bilirubin ≤1.5× upper limit of normal (ULN); and aspartate aminotransferase [AST] or alanine aminotransferase [ALT] at or below ULN; and AP≤2.5×ULN) were eligible for enrollment.
In the INDIGO clinical trial (Study AG881-C-004), 18.6% (31/167) of patients treated with Vorasidenib experienced ALT elevations ≥3 times the ULN and 8.4% (14/167) experienced AST elevations >3 times the ULN. Among these patients, 1.2% (2/167) had concurrent ALT or AST elevations >3 times the ULN and total bilirubin ≥2 times the ULN.
Similarly, more subjects in the vorasidenib arm experienced treatment-related TEAEs than the placebo arm (65 [38.9%] vs. 26 [16.0%] subjects, respectively).
Table 4. Overall Summary of Treatment-Emergent Adverse Events from SMQ (Broad Search) of Hepatic Enzymes Elevation Liver-Related Investigations, Signs and Symptoms—Glioma with Vorasidenib 40 mg QD
Most of the TEAEs were managed within the clinical trial protocol, and discontinuations due to elevated liver enzyme effects were rare (5 subjects, 3%). The median time to resolution (TTR) for the most common (occurred in ≥2 subjects) Grade ≥3 TEAEs in subjects in the vorasidenib arm are as follows:
The exposure-efficacy analysis used the area under the curve (AUCeot) at steady state based on the actual average dose across the treatment duration until EOT.
For the 14 subjects with dose reductions due to hepatotoxicity AE, a swimming plot showing time on study by individual subject is provided in the Figure. The plot includes details regarding timing and duration of TEAEs leading to dose reduction, timing and duration of reduced dose, as well as disease response by Blinded Independent Central Review (BIRC) at each assessment timepoint.

[3] = Study PKH-95032-008: Phase 1, open-label, single-dose pharmacokinetics, safety and tolerability in moderate hepatic impairment vs matched normal hepatic function; format: in vivo, human; conditions: for Tmax: median (minimum, maximum); for Cmax, u: unbound; for half-life / fraction unbound: arithmetic mean±StD; for fraction unbound: read-out: Fu, ave; for AUC0-t, Ratio (%) of Geometric Means (Test/Reference) / Cmax, Ratio (%) of Geometric Means (Test/Reference): moderate hepatic impairment (Test) / normal hepatic function
[4] = Vorasidenib plasma pharmacokinetics across doses (steady-state exposure, dose proportionality); format: in vivo, human
Protocol: At the therapeutic dose of 40 mg QD (Formulation 2), the PopPK model predicted geometric mean AUC,ss and Cmax,ss were 3 times lower than corresponding exposure metrics at 300 mg QD (Formulation 1).

glioma = assay: Study AG881-C-004 (INDIGO): clinical response per BIRC and exposure-efficacy analysis; format: in vivo, human
Excerpt: Exposure-efficacy analyses included clinical response to treatment, i.e., PFS, TTNI, OR (CR+PR+mR), CR+PR, all defined per blind independent review committee (BIRC). […] The exposure metrics were pop PK model predicted individual exposures by using post-hoc individual PK parameters and were based on the actual average dose across the treatment duration. The dose of vorasidenib used in the simulations is corrected for dose-reductions and interruptions occurring during the treatment in real life. […] The exposure-efficacy analysis used the area under the curve (AUCeot) at steady state based on the actual average dose across the treatment duration until EOT. […] For the 14 subjects with dose reductions due to hepatotoxicity AE, a swimming plot showing time on study by individual subject is provided in the Figure. The plot includes details regarding timing and duration of TEAEs leading to dose reduction, timing and duration of reduced dose, as well as disease response by Blinded Independent Central Review (BIRC) at each assessment timepoint.

[5] = Group A normal hepatic function, 20 mg single dose
[6] = Group B moderate hepatic impairment, 20 mg single dose
[7] = human, plasma, 20 mg, Group A normal hepatic function, 20 mg single dose
[8] = human, plasma, 20 mg, Group B moderate hepatic impairment, 20 mg single dose
[9] = 4 subjects further reduced from 20 mg QD to 10 mg QD
[10] = 10 subjects reduced from 40 mg QD to 20 mg QD only
[11] = 167 subjects with glioma, only PR
[12] = 167 subjects with glioma, only PR and MR

SMILES: C[C@@H](Nc1nc(N[C@H](C)C(F)(F)F)nc(-c2cccc(Cl)n2)n1)C(F)(F)F [vorasidenib, 6-(6-chloropyridin-2-yl)-N^2,N^4-bis((R)-1,1,1-trifluoropropan-2-yl)-1,3,5-triazine-2,4-diamine]
- Fecal excretion, total radioactivity recovery in feces [1]: 84.7%
- TEAEs leading to death, number of subjects ([2]; post-crossover, N = 52): 0 subjects
- Treatment-related TEAEs leading to death, number of subjects ([2]; post-crossover, N = 52): 0 subjects
- TEAEs leading to death, number of subjects ([2]; without crossover, N = 167): 0 subjects
- Treatment-related TEAEs leading to death, number of subjects ([2]; without crossover, N = 167): 0 subjects
- TEAEs (overall) leading to dose reduction, % of subjects ([2]; human, in vivo): 10.8%
- TEAEs (overall) leading to dose reduction, number of subjects ([2]; human, in vivo): 18 subjects
- alanine aminotransferase increased leading to dose reduction, % of subjects ([2]; human, in vivo): 7.8%
- alanine aminotransferase increased leading to dose reduction, number of subjects ([2]; human, in vivo): 13 subjects
- alanine aminotransferase increased: % with TTR in >60 days ([2]; human, in vivo): 41.9%
- alanine aminotransferase increased: % with TTR in ≤15 days ([2]; human, in vivo): 9.3%
- alanine aminotransferase increased: number of subjects with TTR in >60 days ([2]; human, in vivo): 36 subjects
- alanine aminotransferase increased: number of subjects with TTR in ≤15 days ([2]; human, in vivo): 8 subjects
- aspartate aminotransferase increased: % with TTR in >60 days ([2]; human, in vivo): 21.4%
- aspartate aminotransferase increased: % with TTR in ≤15 days ([2]; human, in vivo): 28.6%
- aspartate aminotransferase increased: number of subjects with TTR in >60 days ([2]; human, in vivo): 15 subjects
- aspartate aminotransferase increased: number of subjects with TTR in ≤15 days ([2]; human, in vivo): 20 subjects
- effect of exposure (AUCavg and Cmax,avg) on ALT, AST, and bilirubin (all grade and Grade ≥2) ([2]; human, in vivo): no statistically significant effect
- median TTR for aspartate aminotransferase increased (any grade) ([2]; human, in vivo): 29.0 days
- median time to resolution (TTR) for alanine aminotransferase increased (any grade) ([2]; human, in vivo): 56.0 days
- patients with ALT elevations ≥3 times the ULN ([2]; human, in vivo): 18.6%
- patients with ALT elevations ≥3 times the ULN (number/total) ([2]; human, in vivo): 31/167
- patients with AST elevations >3 times the ULN ([2]; human, in vivo): 8.4%
- patients with AST elevations >3 times the ULN (number/total) ([2]; human, in vivo): 14/167
- patients with concurrent ALT or AST elevations >3 times the ULN and total bilirubin ≥2 times the ULN ([2]; human, in vivo): 1.2%
- patients with concurrent ALT or AST elevations >3 times the ULN and total bilirubin ≥2 times the ULN (number/total) ([2]; human, in vivo): 2/167
- subjects requiring a dose reduction from 40 mg QD to 20 mg QD only ([2]; human, in vivo): 10 subjects
- subjects requiring a second dose reduction from 20 mg QD to 10 mg QD ([2]; human, in vivo): 4 subjects
- subjects with at least 1 dose reduction based on the exposure data (any reason), % ([2]; human, in vivo): 16.2%
- subjects with at least 1 dose reduction based on the exposure data (any reason), number ([2]; human, in vivo): 27 subjects
- course of liver enzyme and bilirubin increases ([2]; in vivo): transient and improved or resolved
- AUC0-t and Cmax, normal hepatic function vs moderate hepatic impairment ([3]; 20 mg single dose): similar
- unbound AUC0-t higher in moderate hepatic impairment compared to normal hepatic function ([3]; 20 mg single dose): 23%
- unbound plasma protein fraction, both groups compared ([3]; 20 mg single dose): similar
- Tmax [3, 5]: 3.000 (0.500, 4.00) (10) h
- Cmax, u [3, 5]: 0.8135 (41.7) (10) ng/mL
- Tmax [3, 6]: 2.000 (1.00, 3.00) (9) h
- Cmax, u [3, 6]: 1.104 (54.2) (9) ng/mL
- half-life [3, 7]: 443 ± 349 h
- fraction unbound [3, 7]: 0.0223 ± 0.00245
- AUC(0-t) ([3]; human, plasma, 20 mg, Group A normal hepatic function, 20 mg single dose, geometric mean (geometric CV %), read-out: AUC0-t): 1440 ng·h/mL
- Cmax ([3]; human, plasma, 20 mg, Group A normal hepatic function, 20 mg single dose, geometric mean (geometric CV %), read-out: Cmax): 36.5 ng/mL
- Tmax ([3]; human, plasma, 20 mg, Group A normal hepatic function, 20 mg single dose, read-out: Tmax): ~3 h
- AUC(0-t) ([3]; human, plasma, 20 mg, Group A normal hepatic function, total plasma, 20 mg, read-out: AUC0-t, Geometric Mean (linear mixed effects model)): 1390 ng·h/mL
- Cmax ([3]; human, plasma, 20 mg, Group A normal hepatic function, total plasma, 20 mg, read-out: Cmax, Geometric Mean (linear mixed effects model)): 38.2 ng/mL
- half-life [3, 8]: 360 ± 189 h
- fraction unbound [3, 8]: 0.0289 ± 0.00354
- AUC(0-t) ([3]; human, plasma, 20 mg, Group B moderate hepatic impairment, 20 mg single dose, geometric mean (geometric CV %), read-out: AUC0-t): 1680 ng·h/mL
- Cmax ([3]; human, plasma, 20 mg, Group B moderate hepatic impairment, 20 mg single dose, geometric mean (geometric CV %), read-out: Cmax): 38.5 ng/mL
- Tmax ([3]; human, plasma, 20 mg, Group B moderate hepatic impairment, 20 mg single dose, read-out: Tmax): ~2 h
- AUC(0-t) ([3]; human, plasma, 20 mg, Group B moderate hepatic impairment, total plasma, 20 mg, read-out: AUC0-t, Geometric Mean (linear mixed effects model)): 1750 ng·h/mL
- Cmax ([3]; human, plasma, 20 mg, Group B moderate hepatic impairment, total plasma, 20 mg, read-out: Cmax, Geometric Mean (linear mixed effects model)): 38.5 ng/mL
- tolerability of single-dose administration ([3]; in vivo): tolerable
- AUC0-t, Ratio (%) of Geometric Means (Test/Reference) ([3]; 20 mg): 126%
- Cmax, Ratio (%) of Geometric Means (Test/Reference) ([3]; 20 mg): 101%
- AUC0-t, Ratio (%) of Geometric Means (Test/Reference) ([3]; 20 mg, listed as Vorasidenib): 125.97%
- Cmax, Ratio (%) of Geometric Means (Test/Reference) ([3]; 20 mg, listed as Vorasidenib): 100.66%
- effect of moderate hepatic impairment (Child-Pugh) on total or free (unbound) exposure ([3]; single oral dose of 20 mg): did not lead to clinically relevant changes
- dose proportionality of PK ([4]; from 10 to 200 mg): dose proportional
- time dependence of PK ([4]; in vivo): not time-dependent
- subjects with best response of SD while receiving 10 mg QD (glioma; [9]): Three
- subjects with response of PD while receiving 10 mg QD (glioma; [9]): 1 subject
- subjects with best response of MR by BIRC while receiving 20 mg QD (glioma; [10]): 1 subject
- subjects with best response of PD by BIRC while receiving 20 mg QD (glioma; [10]): one
- subjects with best response of SD by BIRC while receiving 20 mg QD (glioma; [10]): 8 subjects
- subjects with intervention (TTNI), % (glioma; 167 subjects with glioma): 11.4%
- subjects with intervention (TTNI), number (glioma; 167 subjects with glioma): 19 subjects
- subjects with progression (PFS) per BIRC, % (glioma; 167 subjects with glioma): 28.1%
- subjects with progression (PFS) per BIRC, number (glioma; 167 subjects with glioma): 47 subjects
- subjects with CR+PR per BIRC, % (glioma; [11]): 1.2%
- subjects with CR+PR per BIRC, number (glioma; [11]): 2 subjects
- subjects with OR (CR+PR+mR) per BIRC, % (glioma; [12]): 10.8%
- subjects with OR (CR+PR+mR) per BIRC, number (glioma; [12]): 18 subjects
- effect of exposure on efficacy responses (PFS, TTNI, OR and CR+PR) (glioma; studied exposure range, Study AG881-C-004): did not affect efficacy responses
